According to patent publication US20240425607A1, “IL-18BP ANTAGONIST ANTIBODIES AND THEIR USE IN MONOTHERAPY AND COMBINATION THERAPY IN THE TREATMENT OF CANCER” (Compugen Ltd., priority 2023, published 2024):

What was measured:
[1] = test system: tumor infiltrating lymphocytes (TILs) co-cultured with MEL624 cells; assay: rhIL-18 titration in TIL:MEL624 co-culture; format: cell-based, human; settings: 24 hr
Description: Human MEL624 cells were thawed and grown in DMEM with 10% FBS, 1% Glutamax, 1% Penicillin-Streptomycin Solution and 1% HEPES buffer. The cells were then seeded at 75 k cells/well in a 96 well plate in the assay medium (IMDM with 10% human serum, 1% Glutamax, 1% MEM eagle, 1% Sodium Pyruvate and 1% Penicillin-Streptomycin Solution) and incubated 1 hour in 37° C., 5% CO2 incubator before co-culture with human tumor infiltrating lymphocytes that were previously expanded using known melanoma antigens (TILs). Human TILs were thawed in full TIL media and 75 k cells/well were co-cultured with the MEL624 cells to create an effector: target ratio of 1:1. The co-cultured cells were then treated with rhIL-18 (1.23-300 ng/ml). Cells and all added solutions were prepared in full assay medium to a final volume of 200 μl/well. Plates were incubated for 24 hours in 37° C., 5% CO2 incubator, after which the supernatant was collected for cytokine secretion evaluation. All tests were done in triplicates.

[2] = test system: MC38ova tumor-bearing mice; assay: Peripheral effects in MC38ova tumor-bearing mice: anti-mIL18BP vs engineered mIL-18; format: in vivo; settings: single dose, varying concentrations of IL-15
Description: Nine days pre-inoculum, vials of MC38ova^dim cells were thawed into RPMI media containing 10% FBS, 1% Glutamax, 1% Sodium pyruvate, 1% HEPES, 1% NEAA, 0.01% 2-mercaptoethanol, 1% Penicillin-Streptomycin. Following centrifugation at 300×g for 8 min, cell pellet was resuspended, counted and seeded in a T175 flask. On days −7, −5 and −2, the cells were detached and re-seeded at 6-8*10^6 cells/T175 flask. On the day of inoculum, the cells were detached, centrifuged at 300×g for 10 min, filtered through […] cell strainer and resuspended in RPMI.
Experiments were performed in C57Bl/6 (female, 6-8 wk, Envigo). Mice were anesthetized with 10% Ketamine and 10% Xylazine mixture injected intraperitoneal. Next, mice were inoculated with MC38ova cells (1.2×10^6) subcutaneously to the right flank in 50 μl/mice.
At tumor volume of −120 mm^3 (day 9), mice were randomly assigned into treatment groups. Mice were treated with Synagis mouse IgG1, k isotype control 15 mg/kg (IP), anti-mIL18 bp 837 mIgG1 15 mg/kg (IP), PBS (SC), or engineered IL-18 (SC) 0.32 mg/kg. Treatments were injected twice a week for a total of 6 treatments. […] Mice were weighed every week. Mice were bled before the 4th treatment, 4 hours after the 4th treatment, and 24 hours after the 4th treatment. Serum was analyzed for presence of IFNg, TNFα, MCP1, IL6 by Cytometric Bead Array (CBA) Mouse Inflammation Kit (BD Cat. No. 552364). […]

Substance	Concentration at saturation of IFNγ secretion [1]	Concentration that activates TILs (IFNγ secretion) [1]	Spleens of mice treated with IL-15 vs controls [2]
rhIL-18: recombinant human IL-18 (R&D systems)	~100 ng/mL	> 1 ng/mL	
IL-15: recombinant IL15 given to mice as comparator cytokine [reference compound]			larger than controls
